# Measurements as given in paper PMC10762035, “Molecular basis of human trace amine-associated receptor 1 activation” (Nature Communications, 2024).
# Substitutions are numbered along the chain they refer to. Several values for one entry are separate records, joined by “and”; a condition that tells them apart may be missing. Equal values may be shown once.
# Columns and labels:
# Format in all cases: cell-based
# [1] = biological target: T1, hTA1 b2N (Homo sapiens, UniProt Q96RJ0); experiment: GloSensor cAMP accumulation assay, b2N construct; conditions: b2N, n=2
# T1 construct: read by me as the first 25 residues of β2AR (N); expressed in transfected cells; host or cells: HEK293T
# [2] = biological target: T2, hTA1 (Homo sapiens, UniProt Q96RJ0); experiment: GloSensor cAMP accumulation assay, concentration response, wild-type hTA1 in transfected HEK293T cells; conditions: for Dose-response curves for asenapine vs endogenous trace amines: log[Compound], replicate values (N=2);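 on all read-outs here: luminescence read after 30 min compound exposure at room temperature in cells preloaded with D-Luciferin, reflecting Gs-driven cAMP rise, efficacy scaled to the maximal β-PEA response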
# T2 construct: expressed in transfected cells; host or cells: HEK293T
# T2 sequence (Q96RJ0 1-339): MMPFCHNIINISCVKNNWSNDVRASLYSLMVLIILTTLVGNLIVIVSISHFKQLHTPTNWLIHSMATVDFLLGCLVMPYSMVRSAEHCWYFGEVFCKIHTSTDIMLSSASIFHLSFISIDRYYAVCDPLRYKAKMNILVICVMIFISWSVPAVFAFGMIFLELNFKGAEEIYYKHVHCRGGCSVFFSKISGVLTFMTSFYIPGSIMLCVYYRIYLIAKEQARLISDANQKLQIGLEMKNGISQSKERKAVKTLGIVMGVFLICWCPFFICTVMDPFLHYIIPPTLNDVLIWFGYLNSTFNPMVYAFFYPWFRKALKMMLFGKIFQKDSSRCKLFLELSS
# [3] = biological target: T3, hTA1 S107C (Homo sapiens, UniProt Q96RJ0, S107C); experiment: GloSensor cAMP accumulation assay, S107C mutant;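 further: cells transiently co-expressing receptor and GloSensor biosensor, luminescence read after 30 min agonist exposure at room temperature, concentration-response fitted by nonlinear regression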
# T3 construct: expressed in transfected cells; host or cells: HEK293T
# T3 sequence (Q96RJ0 1-339 S107C): T2 sequence (Q96RJ0 1-339) with S107C
# [4] = biological target: T4, hTA1 I290Y (Homo sapiens, UniProt Q96RJ0, I290Y); experiment: GloSensor cAMP accumulation assay, I290Y mutant; conditions: for cAMP accumulation response, normalized (concentration-response source data, single replicate values): hTA1 I290Y (N=3), log[Compound];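 on cAMP accumulation response, normalized (concentration-response source data, single replicate values): normalized to the maximum response of β-PEA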
# T4 construct: expressed in transfected cells; host or cells: HEK293T
# T4 sequence (Q96RJ0 1-339 I290Y): T2 sequence (Q96RJ0 1-339) with I290Y
# [5] = biological target: T5, hTA1 T271N (Homo sapiens, UniProt Q96RJ0, T271N); experiment: GloSensor cAMP accumulation assay, T271N mutant
# T5 construct: expressed in transfected cells; host or cells: HEK293T
# T5 sequence (Q96RJ0 1-339 T271N): T2 sequence (Q96RJ0 1-339) with T271N
# [6] = biological target: T6, hTA1 C13S (Homo sapiens, UniProt Q96RJ0, C13S); experiment: GloSensor cAMP accumulation assay, C13S mutant; conditions: for C13S - Normalized Luminescence Counts (N=2): log[Compound], single wells
# T6 construct: expressed in transfected cells; host or cells: HEK293T
# T6 sequence (Q96RJ0 1-339 C13S): T2 sequence (Q96RJ0 1-339) with C13S
# T1 sequence (Q96RJ0 with tags, fused parts or gaps): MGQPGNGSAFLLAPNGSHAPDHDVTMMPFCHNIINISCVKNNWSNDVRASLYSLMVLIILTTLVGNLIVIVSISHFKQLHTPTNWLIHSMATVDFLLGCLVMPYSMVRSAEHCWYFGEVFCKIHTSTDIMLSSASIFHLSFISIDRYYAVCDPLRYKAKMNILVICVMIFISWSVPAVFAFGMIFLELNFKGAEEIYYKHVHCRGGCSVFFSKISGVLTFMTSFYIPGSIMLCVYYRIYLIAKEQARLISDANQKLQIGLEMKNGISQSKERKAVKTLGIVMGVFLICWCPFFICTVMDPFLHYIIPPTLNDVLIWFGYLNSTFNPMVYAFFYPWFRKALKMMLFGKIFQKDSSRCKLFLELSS
structure (smiles),measurement,setting,value
"NCCc1ccc(Oc2ccc(O)cc2)c(I)c1 [T1AM, 3-iodothyronamine]",Span ± SEM (Emax normalized to β-PEA),[1],80.48
same,pEC50 ± SEM,[1],6.65 ± 0.05
same,EC50,[1]; read-out: EC50,224 nM
same,"pEC50 values, Avg","[2]; WT hTA1, average of the two experiments, Figure 2B source data",6.129
same,"pEC50 values, Mean","[2]; WT hTA1, each line an independent experiment, 3 replicates, Figure 2B source data",6.182 and 6.077
same,"Emax values, Avg","[2]; WT hTA1, β-PEA = 100, average of the two experiments",70.45
same,"Emax values, Mean","[2]; WT hTA1, β-PEA = 100, each line an independent experiment, 3 replicates",81.6192 and 59.2734
same,"Emax values, Avg","[2]; WT, average of the experiments, β-PEA = 100",70.45
same,"Emax values, Avg","[2]; WT, average of the two experiments",70.45
same,"Emax values, Mean","[2]; WT, mean of each independent experiment (3 replicates), β-PEA = 100",81.6192 and 59.2734
same,"Emax values, Mean","[2]; WT, single experiments (3 replicates each), β-PEA = 100",81.6192 and 59.2734
same,Dose-response curves for asenapine vs endogenous trace amines,[2]; M = -5,80.3892 and 70.8419 and 77.0287 and 53.9778 and 58.2977 and 47.0284
same,Dose-response curves for asenapine vs endogenous trace amines,[2]; M = -5.522,67.6372 and 58.4905 and 72.8448 and 53.4613 and 47.5449 and 34.1625
same,Dose-response curves for asenapine vs endogenous trace amines,[2]; M = -6,47.6524 and 43.0457 and 45.9165 and 36.4633 and 32.8477 and 25.2879
same,Dose-response curves for asenapine vs endogenous trace amines,[2]; M = -6.522,27.5341 and 25.2641 and 26.1988 and 18.1976 and 14.2064 and 10.9195
same,Dose-response curves for asenapine vs endogenous trace amines,[2]; M = -7,12.6456 and 9.641 and 11.7554 and 4.346 and 3.125 and 2.796
same,Dose-response curves for asenapine vs endogenous trace amines,[2]; M = -7.522,2.609 and 0.272 and 1.897 and 0.1666 and -0.02121 and -0.8664
same,Dose-response curves for asenapine vs endogenous trace amines,[2]; M = -8,1.34 and 0.4055 and 0.9619 and 0.2136 and -0.06817 and -0.9603
same,Dose-response curves for asenapine vs endogenous trace amines,[2]; M = -8.522,-0.9075 and -0.6182 and -0.5737 and -1.007 and 0.1197 and -2.04
same,Dose-response curves for asenapine vs endogenous trace amines,[2]; M = -9,-0.9521 and -0.863 and -1.419 and -0.8664 and -0.8195 and -1.618
same,Dose-response curves for asenapine vs endogenous trace amines,[2]; M = -9.522,-1.019 and -2.087 and -1.442 and -1.383 and -0.8195 and -2.228
same,Dose-response curves for asenapine vs endogenous trace amines,[2]; M = -10,-0.863 (2×) and -1.286 and -1.477 and -1.054 and -1.571
same,Dose-response curves for asenapine vs endogenous trace amines,[2]; M = -10.522,-1.531 and -2.287 and -1.464 and -1.571 and -1.336 and -1.618
same,Dose-response curves for asenapine vs endogenous trace amines,[2]; M = -11,-0.1731 and -0.9075 and -0.3734 and -0.5847 and 0.1197 and -1.054
same,Dose-response curves for asenapine vs endogenous trace amines,[2]; M = -11.522,-0.507 and -1.152 and -1.197 and -0.209 and -0.1151 and -1.054
same,Dose-response curves for asenapine vs endogenous trace amines,[2]; M = -12,-0.774 and -1.419 and -1.8645 and -1.336 (2×) and -1.571
same,Dose-response curves for asenapine vs endogenous trace amines,[2]; M = -12.522,-1.019 and -1.798 (2×) and -0.7255 and -1.43 and -2.087
same,pEC50 ± SEM,"[2]; wt hTA1, HEK293T, n=3",6.13 ± 0.04
same,EC50,"[2]; wt hTA1, HEK293T, n=3, read-out: EC50",743 nM
same,Emax,"[2]; wt hTA1, relative to β-PEA",70.5%
same,ΔEmax values (each mutant value - WT average),[3]; S107C mutant minus WT average,9.303
same,"Emax values, Mean","[3]; S107C mutant, β-PEA = 100, each line an independent experiment, 3 replicates",79.7491 and 64.3505
same,Span ± SEM (Emax normalized to β-PEA),"[3]; S107C, n=2",72.05 ± 7.70
same,pEC50 ± SEM,"[3]; S107C, n=2",5.87 ± 0.53
same,EC50,"[3]; S107C, n=2, read-out: EC50",1350 nM
same,Span ± SEM (Emax normalized to β-PEA),[4]; I290Y,68.94 ± 4.39
same,pEC50 ± SEM,[4]; I290Y,6.05 ± 0.08
same,EC50,"[4]; I290Y, read-out: EC50",889 nM
same,"pEC50 values, Mean","[4]; I290Y, single experiments (3 replicates each)",6.088 and 6.268 and 5.798
same,"Emax values, Mean","[4]; I290Y, single experiments (3 replicates each), β-PEA = 100",77.2061 and 62.2509 and 67.3555
same,"cAMP accumulation response, normalized (concentration-response source data, single replicate values)",[4]; M = -5,82.7627 and 66.4498 and 84.9173 and 54.2232 and 60.0862 and 58.254 and 61.3384 and 53.4426 and 63.5944
same,"cAMP accumulation response, normalized (concentration-response source data, single replicate values)",[4]; M = -5.522,50.7524 and 44.2888 and 57.216 and 57.1547 and 52.391 and 42.1307 and 35.395 and 42.1629 and 29.7552
same,"cAMP accumulation response, normalized (concentration-response source data, single replicate values)",[4]; M = -6,45.5199 and 34.7472 and 39.6719 and 40.665 and 36.2677 and 35.5349 and 24.1153 and 32.0111 and 19.6034
same,"cAMP accumulation response, normalized (concentration-response source data, single replicate values)",[4]; M = -6.522,32.5927 and 17.8187 and 23.9745 and 21.6102 and 23.076 and 24.1753 and 17.3474 and 11.7076 (2×)
same,"cAMP accumulation response, normalized (concentration-response source data, single replicate values)",[4]; M = -7,19.6655 and 9.201 and 18.4343 and 8.4185 and 1.456 and 10.9836 and 6.068 and 3.812 and 4.9397
same,"cAMP accumulation response, normalized (concentration-response source data, single replicate values)",[4]; M = -7.522,3.968 and -2.188 and 2.737 and 2.189 and -3.307 and -4.04 and -0.7002 and 0.4278 and -1.828
same,"cAMP accumulation response, normalized (concentration-response source data, single replicate values)",[4]; M = -8,2.429 and 0.2746 and -0.0332 and -1.842 and -5.873 and -3.674 and -2.956 and -4.0841 and -0.7002
same,"cAMP accumulation response, normalized (concentration-response source data, single replicate values)",[4]; M = -8.522,0.2746 and -3.111 and -0.341 and -6.605 (2×) and -5.873 and -4.0841 (2×) and -5.212
same,"cAMP accumulation response, normalized (concentration-response source data, single replicate values)",[4]; M = -9,-1.88 and -2.803 and -1.572 and 0.7233 and -0.376 and -4.773 and -6.34 and -4.0841 (2×)
same,"cAMP accumulation response, normalized (concentration-response source data, single replicate values)",[4]; M = -9.522,-1.88 and -3.7267 and -2.188 and -6.605 and -1.109 and -4.407 and -4.0841 (2×) and -6.34
same,"cAMP accumulation response, normalized (concentration-response source data, single replicate values)",[4]; M = -10,-0.0332 and -2.496 and -1.572 and -6.605 and -6.972 and 4.021 and -2.956 (2×) and -6.34
same,"cAMP accumulation response, normalized (concentration-response source data, single replicate values)",[4]; M = -10.522,-1.572
same,"ΔpEC50 values (each mutant value - WT average), Mean","[5]; T271N mutant minus WT average, Figure 5B",0.1858 and 0.05902
same,"pEC50 values, Mean","[5]; T271N mutant, Figure 5B, each row one independent experiment (3 replicates)",6.315 and 6.188
same,"Emax values, Mean","[5]; T271N mutant, Figure 5B, β-PEA = 100, each row one independent experiment (3 replicates)",147.043 and 92.5588
same,pEC50 ± SEM,"[5]; T271N, n=2",6.25 ± 0.03
same,EC50,"[5]; T271N, n=2, read-out: EC50",560 nM
same,Emax,"[5]; T271N, relative to β-PEA",119.8%
same,ΔpEC50 values (each mutant value - WT average),[6]; C13S,-0.156 and -0.1145
same,Emax values,"[6]; C13S, Mean of fit per experiment",53.0882 and 64.9586
same,Span ± SEM (Emax normalized to β-PEA),"[6]; C13S, n=2",59.02 ± 5.94
same,pEC50 ± SEM,"[6]; C13S, n=2",5.99 ± 0.05
same,EC50,"[6]; C13S, n=2, read-out: EC50",1010 nM
same,"pEC50 values, Mean","[6]; hTA1 C13S, mean of 3 replicates, one line per independent experiment",5.973 and 6.015
same,C13S - Normalized Luminescence Counts (N=2),[6]; M = -5,54.3554 and 36.9604 and 53.1374 and 65.6185 and 52.4268 and 54.7653
same,C13S - Normalized Luminescence Counts (N=2),[6]; M = -5.522,42.3654 and 30.6418 and 38.8635 and 53.123 and 40.9666 and 58.8174
same,C13S - Normalized Luminescence Counts (N=2),[6]; M = -6,26.7212 and 21.3162 and 26.3787 and 35.2187 and 26.4539 and 31.7735
same,C13S - Normalized Luminescence Counts (N=2),[6]; M = -6.522,13.0564 and 10.1636 and 13.437 and 17.4036 and 12.4411 and 15.1722
